How the values were obtained:
AT2 (h) = AT2 (h) (Homo sapiens, UniProt P50052); test: competitive radioligand binding assay, AT2 (h) (agonist radioligand)
B1 (h) = B1 (h) (Homo sapiens, UniProt P46663); test: competitive radioligand binding assay, B1 (h) (agonist radioligand)
CB1 (h) = CB1 (h) (Homo sapiens, UniProt P21554); test: competitive radioligand binding assay, CB1 (h) (agonist radioligand)
CRF1 (h) = CRF1 (h) (Homo sapiens, UniProt P34998); test: competitive radioligand binding assay, CRF1 (h) (agonist radioligand)
D4.4 (h) = D4.4 (h) (Homo sapiens, UniProt P21917); test: competitive radioligand binding assay, D4.4 (h) (antagonist radioligand)
ETA (h) = ETA (h) (Homo sapiens, UniProt P25101); test: competitive radioligand binding assay, ETA (h) (agonist radioligand)
H1 (h) = H1 (h) (Homo sapiens, UniProt P35367); test: competitive radioligand binding assay, H1 (h) (antagonist radioligand)
H2 (h) = H2 (h) (Homo sapiens, UniProt P25021); test: competitive radioligand binding assay, H2 (h) (antagonist radioligand)
I2 = test: competitive radioligand binding assay, I2 (antagonist radioligand); conditions: 10 μM
MT1 (ML1A) (h) = MT1 (ML1A) (h) (Homo sapiens, UniProt P48039); test: competitive radioligand binding assay, MT1 (ML1A) (h) (agonist radioligand)
EP2 (h) = EP2 (h) (Homo sapiens, UniProt P43116); test: competitive radioligand binding assay, EP2 (h) (agonist radioligand)
5-HT (non-selective) = test: competitive radioligand binding assay, 5-HT (non-selective) (agonist radioligand); conditions: 10 μM
[1] = test system: sigma (non-selective) (h); test: competitive radioligand binding assay, sigma (non-selective) (h) (agonist radioligand); parameters: species or system human; conditions: 10 μM
AR (h) = test: competitive radioligand binding assay, AR (h) (agonist radioligand); parameters: species or system human; conditions: 10 μM
TRH1 (h) = TRH1 (h) (Homo sapiens, UniProt P34981); test: competitive radioligand binding assay, TRH1 (h) (agonist radioligand)
[2] = test system: Ca2+ channel (L, dihydropyridine site); test: competitive radioligand binding assay, Ca2+ channel (L, dihydropyridine site) (antagonist radioligand); conditions: 10 μM
KATP channel = test: competitive radioligand binding assay, KATP channel (antagonist radioligand); conditions: 10 μM
Cl− channel (GABA-gated) = test: competitive radioligand binding assay, Cl− channel (GABA-gated) (antagonist radioligand); conditions: 10 μM
dopamine transporter (h) = dopamine transporter (h) (Homo sapiens, UniProt Q01959); test: competitive radioligand binding assay, dopamine transporter (h) (antagonist radioligand)
[3] = molecular target: T1, rat AR ligand-binding domain (Rattus norvegicus, UniProt P15207); test: Competitive-binding assay vs AR ligand Fluormone (PolarScreen Androgen Receptor Competitor Assay, fluorescence polarization)
T1 construct: purchased Invitrogen PV4293
Protocol: Binding to rat AR ligand-binding domain was measured in competition with fluorescently labeled AR ligand Fluormone™ using a commercial assay kit and fluorescence polarization as a read-out.
FIG. 3. Competitive-binding assay vs AR ligand Fluormone™ (PolarScreen™ Androgen Receptor Competitor Assay, Invitrogen, cat. #PV4293).

[4] = Distribution in plasma, brain and prostate after single IV administration in rats; format: in vivo; conditions: single IV 2 mg/kg
[5] = Maximum tolerated dose, peroral once a day for 5 days in CD1 male mice; format: in vivo
Protocol: The maximum tolerated doses (MTD) of novel antagonists (R)-1 and their analog Ia were determined in experiments on CD1 male mice at peroral administration once a day for 5 days in doses of 10, 30, and 100 mg/kg. The compound was dissolved in sterile water with addition of Tween 80. Sterile water with Tween 80 was given to control animals (Placebo group). Animals' body weight and mortality rate were estimated. Statistical comparison of groups was carried out according to a non-parametric ANOVA test using Statistica software.

T1 sequence (P15207 651-882 limits assumed): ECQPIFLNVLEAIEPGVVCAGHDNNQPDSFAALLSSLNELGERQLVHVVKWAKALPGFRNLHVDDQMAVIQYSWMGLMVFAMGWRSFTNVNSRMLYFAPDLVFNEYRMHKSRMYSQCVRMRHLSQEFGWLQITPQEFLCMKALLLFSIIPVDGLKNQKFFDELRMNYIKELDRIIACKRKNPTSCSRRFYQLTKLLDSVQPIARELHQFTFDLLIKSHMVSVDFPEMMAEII
Sequence of H2 (h) (P25021 whole entry): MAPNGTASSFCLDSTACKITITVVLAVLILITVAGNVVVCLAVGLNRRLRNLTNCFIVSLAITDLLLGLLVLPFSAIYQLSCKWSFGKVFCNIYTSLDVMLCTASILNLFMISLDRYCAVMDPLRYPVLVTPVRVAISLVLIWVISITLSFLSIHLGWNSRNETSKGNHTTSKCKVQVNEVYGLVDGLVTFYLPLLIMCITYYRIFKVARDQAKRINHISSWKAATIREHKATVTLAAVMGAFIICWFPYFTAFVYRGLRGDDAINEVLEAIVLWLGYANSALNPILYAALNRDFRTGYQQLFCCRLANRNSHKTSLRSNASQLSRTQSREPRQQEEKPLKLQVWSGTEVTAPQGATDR
Sequence of ETA (h) (P25101 21-427): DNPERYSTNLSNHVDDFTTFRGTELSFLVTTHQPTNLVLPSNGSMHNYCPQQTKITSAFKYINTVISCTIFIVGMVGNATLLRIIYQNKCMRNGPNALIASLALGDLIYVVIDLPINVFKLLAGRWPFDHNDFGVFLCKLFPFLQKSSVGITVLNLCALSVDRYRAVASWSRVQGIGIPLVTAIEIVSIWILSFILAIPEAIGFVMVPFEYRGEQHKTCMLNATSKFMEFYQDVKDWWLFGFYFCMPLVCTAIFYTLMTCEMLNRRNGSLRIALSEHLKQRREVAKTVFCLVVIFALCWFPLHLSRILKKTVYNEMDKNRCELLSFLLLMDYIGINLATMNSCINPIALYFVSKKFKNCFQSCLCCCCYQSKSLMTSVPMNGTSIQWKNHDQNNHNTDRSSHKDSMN
Sequence of TRH1 (h) (P34981 whole entry): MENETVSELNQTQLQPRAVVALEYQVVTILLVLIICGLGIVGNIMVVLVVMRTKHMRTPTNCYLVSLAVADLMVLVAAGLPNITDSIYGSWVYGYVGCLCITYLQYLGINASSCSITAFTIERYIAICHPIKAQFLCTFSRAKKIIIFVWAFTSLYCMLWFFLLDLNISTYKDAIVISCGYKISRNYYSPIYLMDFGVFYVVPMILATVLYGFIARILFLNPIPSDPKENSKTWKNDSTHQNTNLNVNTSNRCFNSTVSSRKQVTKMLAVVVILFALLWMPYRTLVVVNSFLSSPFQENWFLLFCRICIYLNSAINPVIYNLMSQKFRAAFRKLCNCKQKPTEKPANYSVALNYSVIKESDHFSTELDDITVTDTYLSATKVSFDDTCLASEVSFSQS
Sequence of EP2 (h) (P43116 whole entry): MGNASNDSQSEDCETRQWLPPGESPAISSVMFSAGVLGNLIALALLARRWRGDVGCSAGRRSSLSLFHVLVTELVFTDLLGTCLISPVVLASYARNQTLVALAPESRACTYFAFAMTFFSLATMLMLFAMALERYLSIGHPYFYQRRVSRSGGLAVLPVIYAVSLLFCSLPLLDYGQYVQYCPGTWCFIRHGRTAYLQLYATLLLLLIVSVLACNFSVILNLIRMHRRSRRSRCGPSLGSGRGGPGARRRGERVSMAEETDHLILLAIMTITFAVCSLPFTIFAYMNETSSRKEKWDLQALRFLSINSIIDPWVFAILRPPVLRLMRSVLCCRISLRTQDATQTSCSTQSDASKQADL
Sequence of B1 (h) (P46663 whole entry): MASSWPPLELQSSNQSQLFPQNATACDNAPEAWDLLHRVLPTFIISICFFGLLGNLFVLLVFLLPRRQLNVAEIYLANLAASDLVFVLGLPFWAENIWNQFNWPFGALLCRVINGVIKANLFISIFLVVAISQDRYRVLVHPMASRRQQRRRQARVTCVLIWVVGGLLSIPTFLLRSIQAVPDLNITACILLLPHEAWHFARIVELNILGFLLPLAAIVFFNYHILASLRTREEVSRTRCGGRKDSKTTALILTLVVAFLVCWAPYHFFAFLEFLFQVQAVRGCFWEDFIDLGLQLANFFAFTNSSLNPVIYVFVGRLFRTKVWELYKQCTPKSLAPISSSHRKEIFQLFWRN
Sequence of MT1 (ML1A) (h) (P48039 whole entry): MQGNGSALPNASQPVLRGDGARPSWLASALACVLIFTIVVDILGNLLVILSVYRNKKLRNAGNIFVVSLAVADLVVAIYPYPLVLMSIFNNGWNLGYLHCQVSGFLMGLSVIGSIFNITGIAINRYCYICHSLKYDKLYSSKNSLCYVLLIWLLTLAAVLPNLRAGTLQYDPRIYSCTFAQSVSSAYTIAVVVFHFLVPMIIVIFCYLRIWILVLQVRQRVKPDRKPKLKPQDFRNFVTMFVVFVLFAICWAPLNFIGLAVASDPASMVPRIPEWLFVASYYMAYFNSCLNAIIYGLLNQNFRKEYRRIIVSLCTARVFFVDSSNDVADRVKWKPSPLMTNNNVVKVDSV
Sequence of CRF1 (h) (P34998 24-415): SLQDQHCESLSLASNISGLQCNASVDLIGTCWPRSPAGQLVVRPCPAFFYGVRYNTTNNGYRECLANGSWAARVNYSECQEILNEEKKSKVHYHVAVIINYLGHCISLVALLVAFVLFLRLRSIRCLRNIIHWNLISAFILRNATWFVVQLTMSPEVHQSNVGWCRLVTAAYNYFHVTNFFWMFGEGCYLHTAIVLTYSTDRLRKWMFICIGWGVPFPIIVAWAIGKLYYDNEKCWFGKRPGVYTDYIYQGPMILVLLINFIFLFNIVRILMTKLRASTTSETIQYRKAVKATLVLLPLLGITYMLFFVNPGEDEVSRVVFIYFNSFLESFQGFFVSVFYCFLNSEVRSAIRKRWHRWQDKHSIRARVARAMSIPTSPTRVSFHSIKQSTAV
Sequence of dopamine transporter (h) (Q01959 whole entry, the tested form may be a part): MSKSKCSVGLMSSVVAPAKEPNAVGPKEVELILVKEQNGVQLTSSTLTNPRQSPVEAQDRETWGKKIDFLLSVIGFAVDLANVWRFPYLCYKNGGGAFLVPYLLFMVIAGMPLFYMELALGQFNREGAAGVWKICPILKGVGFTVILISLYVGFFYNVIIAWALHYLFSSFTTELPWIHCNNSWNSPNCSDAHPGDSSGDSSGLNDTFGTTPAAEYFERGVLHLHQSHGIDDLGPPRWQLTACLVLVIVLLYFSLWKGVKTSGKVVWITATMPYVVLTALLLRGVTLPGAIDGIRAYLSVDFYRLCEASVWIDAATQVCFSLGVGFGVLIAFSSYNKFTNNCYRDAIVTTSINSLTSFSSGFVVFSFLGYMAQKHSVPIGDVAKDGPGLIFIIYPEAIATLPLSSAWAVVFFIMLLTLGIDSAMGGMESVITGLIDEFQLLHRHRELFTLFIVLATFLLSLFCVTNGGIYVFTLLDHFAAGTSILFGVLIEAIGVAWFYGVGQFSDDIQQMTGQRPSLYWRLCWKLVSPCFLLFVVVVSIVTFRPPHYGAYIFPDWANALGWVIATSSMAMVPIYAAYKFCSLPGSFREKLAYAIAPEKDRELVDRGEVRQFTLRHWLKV
Sequence of D4.4 (h) (P21917 whole entry): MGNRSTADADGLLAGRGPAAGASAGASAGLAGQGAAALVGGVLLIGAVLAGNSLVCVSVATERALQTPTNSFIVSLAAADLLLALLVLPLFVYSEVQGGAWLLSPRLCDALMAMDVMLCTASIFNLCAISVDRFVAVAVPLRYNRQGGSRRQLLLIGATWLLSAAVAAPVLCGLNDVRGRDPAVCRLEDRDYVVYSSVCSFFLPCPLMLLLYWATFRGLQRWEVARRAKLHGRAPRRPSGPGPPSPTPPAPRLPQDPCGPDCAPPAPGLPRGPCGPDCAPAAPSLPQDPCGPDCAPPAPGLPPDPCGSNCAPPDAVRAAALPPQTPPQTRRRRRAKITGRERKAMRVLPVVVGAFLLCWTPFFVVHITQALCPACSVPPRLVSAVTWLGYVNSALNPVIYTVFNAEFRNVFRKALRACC
Sequence of H1 (h) (P35367 whole entry): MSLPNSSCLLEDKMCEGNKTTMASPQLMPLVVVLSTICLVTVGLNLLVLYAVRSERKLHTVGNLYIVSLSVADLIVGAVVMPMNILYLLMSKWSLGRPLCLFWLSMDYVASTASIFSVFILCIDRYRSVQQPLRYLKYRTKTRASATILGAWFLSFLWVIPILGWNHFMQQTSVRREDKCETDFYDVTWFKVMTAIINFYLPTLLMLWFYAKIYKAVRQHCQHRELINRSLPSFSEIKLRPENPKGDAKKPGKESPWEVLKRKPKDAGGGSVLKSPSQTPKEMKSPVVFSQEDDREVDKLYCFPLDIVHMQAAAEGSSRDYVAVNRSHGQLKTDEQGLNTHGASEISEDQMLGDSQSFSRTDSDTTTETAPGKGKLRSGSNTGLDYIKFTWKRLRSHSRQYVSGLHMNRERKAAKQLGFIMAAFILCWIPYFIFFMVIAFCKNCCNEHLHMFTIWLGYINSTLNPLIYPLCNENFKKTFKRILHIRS
Sequence of CB1 (h) (P21554 whole entry): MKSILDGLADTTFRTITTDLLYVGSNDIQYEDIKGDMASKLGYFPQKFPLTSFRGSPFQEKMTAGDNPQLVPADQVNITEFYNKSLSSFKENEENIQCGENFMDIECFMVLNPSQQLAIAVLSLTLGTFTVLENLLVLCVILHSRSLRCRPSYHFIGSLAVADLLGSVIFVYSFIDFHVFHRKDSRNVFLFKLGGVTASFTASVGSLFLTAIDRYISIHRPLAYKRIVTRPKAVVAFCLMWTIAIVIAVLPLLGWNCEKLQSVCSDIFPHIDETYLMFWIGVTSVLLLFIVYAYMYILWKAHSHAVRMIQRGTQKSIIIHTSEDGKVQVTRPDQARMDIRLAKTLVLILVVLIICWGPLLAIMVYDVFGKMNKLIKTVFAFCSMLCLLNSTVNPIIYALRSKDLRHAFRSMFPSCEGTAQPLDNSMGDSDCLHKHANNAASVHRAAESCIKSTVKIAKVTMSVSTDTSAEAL

In the case of `CNC(=O)c1ccc(N2C(=S)N(c3ccc(C#N)c(C(F)(F)F)c3)C(=O)[C@]23CCOC3)cc1F` [(R)-1, 4-[(R)-3-(4-cyano-3-trifluoromethyl-phenyl)-4-oxo-2-thioxo-7-oxa-1,3-diaza-spiro[4.4]non-1-yl]-2-fluoro-N-methyl-benzamide], the inhibition at 10 µM (AT2 (h)) is reported as -6.2%, the inhibition at 10 µM (B1 (h)) is reported as 0.5% and the inhibition at 10 µM (CB1 (h)) is reported as -4.5%. For the same compound, the inhibition at 10 µM (CRF1 (h)) was -0.1%, the inhibition at 10 µM (D4.4 (h)) was -4.7% and the inhibition at 10 µM (ETA (h)) was -2.5%. For the same compound, the inhibition at 10 µM (H1 (h)) was 0.7%, the inhibition at 10 µM (H2 (h)) was -2.6% and the “% Inhibition” value (I2) was 10.1%. For the same compound, the inhibition at 10 µM (MT1 (ML1A) (h)) was -6.2%, the inhibition at 10 µM (EP2 (h)) was 0% and the “% Inhibition” value (5-HT (non-selective)) was −8.2%. The “% Inhibition” value [1] was 9.8%, the “% Inhibition” value (AR (h)) was 96.3% and the inhibition at 10 µM (TRH1 (h)) was 3.4%. For the same compound, the “% Inhibition” value [2] was −2.5%, the “% Inhibition” value (KATP channel) was −0.8% and the “% Inhibition” value (Cl− channel (GABA-gated)) was 42.4%. The inhibition at 10 µM (dopamine transporter (h)) was -0.3%, the IC50 ([3]; rat AR ligand-binding domain, fluorescence polarization (FIG. 3)) was 7.9 µM and the “fold more efficient binding than Ia” value ([3]; versus Ia) was “around 2.1 fold”. For the same compound, the concentration at 30 min ([4]; rat, plasma, 30 min, Mean ± SD, n = 3) was 746 ± 104 ng/mL, the concentration at 120 min ([4]; rat, plasma, 120 min, Mean ± SD, n = 3) was 522 ± 57 ng/mL and the Brain/Plasma ([4]; 30 min) was 0.19 ± 0.02. It also gave a Prostate/Plasma ([4]; 30 min) of 1.55 ± 0.08, a Brain ([4]; 30 min, Mean ± SD, n = 3) of 145 ± 22 ng/g and a Plasma ([4]; 30 min, Mean ± SD, n = 3) of 746 ± 104 ng/mL. For the same compound, the Prostate ([4]; 30 min, Mean ± SD, n = 3) was 1159 ± 164 ng/g, the Brain/Plasma ([4]; 120 min) was 0.17 ± 0.35 and the Prostate/Plasma ([4]; 120 min) was 1.20 ± 0.36. For the same compound, the Brain ([4]; 120 min, Mean ± SD, n = 3) was 89 ± 10 ng/g, the Plasma ([4]; 120 min, Mean ± SD, n = 3) was 522 ± 57 ng/mL and the Prostate ([4]; 120 min, Mean ± SD, n = 3) was 625 ± 108 ng/g. The MTD at 5 days ([5]; CD1, mouse, in vivo, oral, male CD-1 mice, peroral once a day for 5 days) was greater than 100 mg/kg, the “body weight versus control animals (Placebo group)” value ([5]; CD1 male mice, peroral, 100 mg/kg) was “no statistical significance was observed” and the mortality ([5]; CD1 male mice, peroral, doses below 100 mg/kg (10 and 30 mg/kg)) was “did not lead to death”. The “toxicity compared with the (Ia) antagonist” value ([5]; male CD-1 mice, from MTD) was “more than three times less toxic”.
